One experiment relates to HIV-1. Description: NCI (Weislow) anti-HIV screen, XTT cell protection, HIV-1 infected CEM-SS. It is filed as cell-based. Conditions: for anti-HIV activity / relative potency in words: NCI anti-HIV screen; for Classification (Active / Moderately Active / Inactive): Weislow assay, criteria of NCI protocol; for Classification (Active / Moderately Active / Inactive) / TI (therapeutic index, IC50/EC50): CEM-SS, HIV-1; for pEC50: Human immunodeficiency virus 1, 6 days, HIV-1 infected CEM-SS cells, 8c, 8d tested as racemic drug, read-out: EC50 (effective inhibition for 50% of cell growth); for pEC50 / TI (therapeutic index, IC50/EC50): Table 3; for TI (therapeutic index, IC50/EC50): 8640 min. On the procedure:
The compounds of this invention were also all assayed for activity in inhibiting the growth of HIV, human immunodeficiency virus, the virus known to cause AIDS. The protocol^25 was that of the National Cancer Institute (NCI) of the National Institutes of Health. The primary screen makes use of the HIV-1 strain of the virus. By this protocol, the procedure is as follows:
(1) The sample is dissolved in dimethyl sulfoxide, then diluted 1:100 in cell culture medium before preparing serial half-log10 dilutions. T4 lymphocytes (CEM cell line) are added, and after a brief interval, HIV-1 is added, resulting in a 1:200 dilution of the compound. Uninfected cells with the compound serve as a toxicity control, and infected and uninfected cells without the compound serve as basic controls. […]
(§1) (3) The tetrazolium salt, XTT, is added to all wells, and cultures are incubated to allow formazan color development by viable cells.
(§2) (4) Individual wells are analyzed spectrophotometrically to quantitate fornazan production, and in addition are viewed microscopically for detection of viable cells and confirmation of protective activity.
(§3) (5) Drug-treated, virus-infected cells are compared with drug-treated, noninfected cells and with other appropriate controls (untreated infected and untreated noninfected cells, drug-containing wells without cells, etc.) on the same plate.
(6) Data are reviewed in comparison with other tests done at the same time, and a determination about activity is made.
(§4) The results are given for IC50 and EC50. IC50 is a measure of "concentration for inhibition of 50% of cell growth" and is measured from drug-treated, uninfected cells, thus giving a measure of drug toxicity toward T4 lymphocytes. The EC50 is "effective inhibition for 50% of cell growth" and is measured on drug-treated, HIV-infected cells. A ratio of these values, IC50 /EC50 gives the therapeutic index, a measure of the overall effectiveness of the drug in halting virus-infestedcell growth. Typically for anti-HIV drugs to be classed as "active" in the NCI protocol, the IC50 value should be at least micromolar (10^-6 M) and the EC50 value should be sub-micromolar (10^-7 M or lower); however, these values are only ideal, and may vary a log-order in magnitude or more. […] Large, positive TI values, measured in the 10^2 -10^3 range indicate a potent, relatively nontoxic drug and represent the near-ideal drug candidate.
(§5) ^a Testing was conducted according to NCI's protocol [Weislow, O. W.
(§6) et al. J. Natl. Cancer Inst. 1989, 81, 577-586]. The virus strain was
(§7) HIV1, and the cell line was CEMSS.
On the technique in general: Tetrazolium dyes change colour on reduction, which living cells bring about.

Experiment [1] concerns T4 lymphocytes (CEM cell line), CEMSS. As to the kind of experiment: NCI protocol toxicity control: growth of drug-treated, uninfected CEM-SS cells. It is filed as cell-based. Particulars: Homo sapiens, Table 3, 8b-8e tested as racemic drug, read-out: IC50 (concentration for inhibition of 50% of cell growth). How it is done: (§8) (1) The sample is dissolved in dimethyl sulfoxide, then diluted 1:100 in cell culture medium before preparing serial half-log10 dilutions. T4 lymphocytes (CEM cell line) are added, and after a brief interval, HIV-1 is added, resulting in a 1:200 dilution of the compound. Uninfected cells with the compound serve as a toxicity control, and infected and uninfected cells without the compound serve as basic controls.
(§9) (2) Cultures are incubated at 37° C. in a 5% carbon dioxide atmosphere for six days.
as §1, §2, §3, §4, §5, §6, §7

The test system of experiment [2] is HIV-1 (6R), an AZT-resistant strain. Description: NCI protocol, HIV-1 (6R) AZT-resistant strain, MT4 cells. It is filed as cell-based. Particulars: for pEC50: Human immunodeficiency virus 1, MT4; for TI (IC50/EC50) / Classification: Table 4, HIV-1 (6R), MT4 cells; for Classification: NCI criteria. On the procedure:
as §8, §9, §1, §2, §3, §4
(§10) Among these are the following strains of the virus: (1) HIV-1 (6R), an AZT-resistant strain; (2) N119, a nevirapine-resistant strain bearing a mutation at AA codon 181; (2) DPS, a diphenyl sulfone-resistant strain bearing a different mutation at AA codon 181.
as §5, §6
(§11) HIV1, and the cell line was MT4.

For experiment [3], the system named is N119, a nevirapine-resistant strain bearing a mutation at AA codon 181. As to the kind of experiment: NCI protocol, N119 nevirapine-resistant strain, MT4 cells. Particulars: for pEC50: Human immunodeficiency virus 1, MT4; for Classification: NCI criteria. It is filed as cell-based, HIV-1. On the procedure: as §8, §9, §1, §2, §3, §4, §10, §5, §6, §11

The subject of experiment [4] is DPS, a diphenyl sulfone-resistant strain bearing a different mutation at AA codon 181. Description: NCI protocol, DPS diphenyl sulfone-resistant strain, MT4 cells. It is filed as cell-based, HIV-1. Particulars: for pEC50: Human immunodeficiency virus 1, MT4; for TI (IC50/EC50) / Classification: Table 4, DPS, MT4 cells; for Classification: NCI criteria. How it is done:
as §8, §9, §1, §2, §3, §4, §10, §5, §6, §11

A further experiment has as its system MT4 cells. As to the kind of experiment: NCI protocol toxicity control: growth of drug-treated, uninfected MT4 cells. Conditions: Homo sapiens. It is filed as cell-based. How it is done:
as §8, §9, §1, §2, §3, §4, §5, §6, §11

Experiment [5] relates to strains of HIV resistant to other drugs that inhibit HIV reverse transcriptase. Description: Activity against HIV strains resistant to other HIV reverse transcriptase inhibitors (summary in words). It is filed as cell-based. Conditions: HIV-1 (6R), N119, DPS.
From the text: as §10
From the data in the Table, both compounds (-)-7a and 8a were classified as "active" for inhibition of each resistant HIV strain. From the large TI values, their potencies against these resistant strains of the virus are novel and remarkable. Other compounds of the invention are expected also to have this property.
as §5, §6, §11

In experiment [6] the test system is human immunodeficiency virus (HIV). Conditions: four diastereomers of the calanolide series, literature, cited from earlier work.
[7] abbreviates: MT4, Table 4, line of strain DPS.
The mark [8] stands for this setting: MT4, Table 4, line of strain HIV-1 (6R).
The mark [9] stands for this setting: MT4, Table 4, line of strain N119.

pEC50, pIC50: −log10 of the molar value. “Also recorded” adds a separate entry of the source. Read-outs that look alike come from different tables or passages of the source.

In the case of `CCCc1cc(=O)oc2c3c(cc(OC)c12)O[C@H](C)[C@@H](C)[C@@H]3O` (relative stereo) [Compound 8b], in the experiment with HIV-1, the “anti-HIV activity / relative potency in words” value is reported as “less potent activities” and the “Classification (Active / Moderately Active / Inactive)” value was “Inactive”. In addition, the pIC50 in experiment [1] was under 3.70.

Usually pEC50 stands for the negative decadic logarithm of the EC50, by convention in mol/L. In the case of `CCCc1cc(=O)oc2c3c(cc(OC(C)CC)c12)O[C@H](C)[C@@H](C)[C@@H]3O` (relative stereo) [Compound 8c], in the experiment with HIV-1, the pEC50 is 5.44; the “anti-HIV activity / relative potency in words” value is “less potent activities”; the “TI (therapeutic index, IC50/EC50)” value worked out at 10.2; the “Classification (Active / Moderately Active / Inactive)” value is on record as “Mod. Active; also recorded: moderately active”. For the same molecule, in experiment [1], the pIC50 was 4.43.

As for `CCCc1cc(=O)oc2c3c(cc(OC(C)C)c12)O[C@@H](C)[C@H](C)[C@@H]3O` [(-)-7a, (-)-(8S,9R,10S)-10-Hydroxy-5-isopropyloxy-8,9-dimethyl-4-propyl-9,10-di-hydro-8H-pyrano[2,3-f]-chromen-2-one], the pEC50 with HIV-1 is 6.02; in experiment [2], 6.19; in experiment [3], 8.15; in experiment [4], 7.00. For the same molecule, the “anti-HIV activity / relative potency in words” value is on record as “highly potent; also recorded: remarkable” in the experiment on HIV-1 and “consistently showed impressive results in the anti-HIV screen” in the experiment with HIV-1 (listed as (-)-7). The “TI (therapeutic index, IC50/EC50)” value with HIV-1 came to 84.2. In addition, the “Classification (Active / Moderately Active / Inactive)” value with HIV-1 is “Active”. Further, the pIC50 in experiment [1] was 5.09; in the experiment with MT4 cells (setting [7]), 4.92; with MT4 cells (setting [8]), 4.97; in the experiment on MT4 cells (setting [9]), 4.95. The “TI (IC50/EC50)” value in experiment [2] was 16.9; in experiment [3] (Table 4, N119, MT4 cells) it was 1540; in experiment [4], 121. Besides, the Classification result was “Active” in experiment [2]; “Active” in experiment [3] (Table 4, N119, MT4 cells); “Active” in experiment [4]. The “inhibitory activity against resistant HIV strains, in words” value in experiment [5] is “potent inhibitory activities; also recorded: active; also recorded: potent activity”.

As for `CCCc1cc(=O)oc2c3c(cc(OC(C)C)c12)O[C@@H](C)[C@H](C)[C@H]3O` [(-)-8a, (-)-(8S, 9R, 10R)-10-Hydroxy-5-isopropyloxy-8,9-dimethyl-4-propyl-9,10-dihydro-8H-pyrano[2,3-f]-chromen-2-one], in the experiment with HIV-1, the “anti-HIV activity / relative potency in words” value was “consistently showed impressive results in the anti-HIV screen” and the “Classification (Active / Moderately Active / Inactive)” value is “Inactive”. Besides, in experiment [1], the pIC50 is 5.13.

In the case of `CCCc1cc(=O)oc2c3c(cc(OC(C)C)c12)O[C@H](C)[C@@H](C)[C@H]3O` [Compound 7a, (+)-(8R,9S,10R)-10-Hydroxy-5-isopropyloxy-8,9-dimethyl-4-propyl-9,10-di-hydro-8H-pyrano[2,3-f]-chromen-2-one], in the experiment with HIV-1, the “anti-HIV activity / relative potency in words” value is “consistently showed impressive results in the anti-HIV screen” and the “Classification (Active / Moderately Active / Inactive)” value is listed as “Inactive”. Also, the pIC50 in experiment [1] was 5.08.

As to `CCCc1cc(=O)oc2c3c(c4c(c12)OC(C)(C)C=C4)O[C@H](C)[C@@H](C)[C@@H]3O` [(+)-calanolide A], the “anti-HIV potency of known calanolides, in words” value in experiment [6] is on record as “the more potent of the four diastereomers”; in experiment [6] (listed as (+)-Calanolide A), “more potent diastereomers in this class”.

Turning to `CCCc1cc(=O)oc2c3c(cc(OC(C)C)c12)O[C@H](C)[C@@H](C)[C@@H]3O` [Compound 8a, (+)-(8R,9S,10S)-10-Hydroxy-5-isopropyloxy-8,9-dimethyl-4-propyl-9,10-dihydro-8H-pyrano[2,3-f]-chromen-2-one], the pEC50 is 6.79 with HIV-1, 6.44 in experiment [2], 8.20 in experiment [3] and 7.19 in experiment [4]. In addition, the “anti-HIV activity / relative potency in words” value is given as “consistently showed impressive results in the anti-HIV screen; also recorded: remarkable” in the experiment with HIV-1 and “remarkable among the congeners of the invention” in the experiment on HIV-1 (listed as (+)-8a). Also, the “TI (therapeutic index, IC50/EC50)” value in the experiment with HIV-1 was determined as 130. Besides, the “Classification (Active / Moderately Active / Inactive)” value with HIV-1 is given as “Active”. Further, the pIC50 was 4.68 in experiment [1], under 4.70 with MT4 cells (setting [7]), under 4.70 in the experiment with MT4 cells (setting [8]) and under 4.70 in the experiment with MT4 cells (setting [9]). In addition, the entries for the “TI (IC50/EC50)” value in experiment [2] and in experiment [4] were 54.8 and over 308, respectively. Further, the Classification entry in experiment [2] is “Active”; in experiment [3] (Table 4, N119, MT4 cells), “Active”; in experiment [4], “Active”. In addition, the figures for the “inhibitory activity against resistant HIV strains, in words” value in experiment [5] and in experiment [5] (listed as (+)-8a) were “potent inhibitory activities; also recorded: active” and “potent activity”, respectively.

With `CCCc1cc(=O)oc2c3c(c4c(c12)OC(C)(C)C=C4)OC(C)C(C)C3O` (single isomer, unassigned; (-)) [(-)-calanolide B], in experiment [6], the “anti-HIV potency of known calanolides, in words” value is recorded as “the more potent of the four diastereomers; also recorded: more potent diastereomers in this class”.

For the molecule `C#CCOc1cc2c(c3oc(=O)cc(CCC)c13)[C@@H](O)[C@H](C)[C@@H](C)O2` (relative stereo) [Compound 8e], in the experiment with HIV-1, the “anti-HIV activity / relative potency in words” value was “less potent activities” and the “Classification (Active / Moderately Active / Inactive)” value is reported as “Inactive”. Besides, in experiment [1], the pIC50 is 5.08.
